Measurements from patent US20100190747A1, “Fused ring compound and use thereof” (priority 2009, published 2010).

Experiments:
delta-5-desaturase = target: T1, delta-5-desaturase (Rattus norvegicus, UniProt Q920R3); experiment: Inhibitory activity on delta-5-desaturase (rat liver microsomal fraction, 14C-eicosatrienoic acid, TLC); format: biochemical; settings: test compound at 10 μM, room temperature, 120 minutes
T1 construct: the microsomal fraction of a rat river (10 μl), which had been diluted to 3 mg/ml; from tissue; host or cells: rat liver microsomal fraction
Outline: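 Rat liver microsomes (3 mg/ml before addition) incubated with test compound at 10 μM, NADH, ATP, CoA and 14C-eicosatrienoic acid in phosphate buffer pH 7.4 with BSA and glutathione, 120 min at room temperature. Lipids saponified, extracted, separated by reverse-phase TLC and imaged; % inhibition reported.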

[1] = test system: atherogenic diet fed apoE-deficient mice; experiment: Anti-atherosclerotic and anti-obesity effects in atherogenic diet fed apoE-deficient mice; format: in vivo; settings: 10 mg/kg/day p.o. for 15 weeks, male apoE-deficient mice on high fat diet, vehicle group taken as 100%; for Reduction in atherosclerotic lesion area (%): aorta, oil red O staining
Method: Assessments of anti-atherosclerotic effects and anti-obesity effects on atherogenic diet fed apoE-deficient mice were performed by the method described below.
Male apoE-deficient mice of 11-13 week-age (Jacson Lab) conditioned with ordinary diet (Research Diet) in separate cages were allowed to take high fat diet (Research Diet) at libitum for 14 weeks to thereby form atherosclerotic lesions in the aorta. The test compound suspended in 0.5% methyl cellulose solution was forcedly and orally administered to the mice at 10 ml/kg everyday for 15 weeks from 1 week prior to the start of the high fat diet feeding. Body weights were measured on the day of autopsy. The body weight reduction ratio of test compound-administered group was calculated taking the body weight of vehicle-administered group as 100%, to thereby obtain an index for anti-obesity effects. The aorta (from immediately above the aortic valve to the ventral branch of common iliac artery) removed under anesthesia was totally incised after removal of adipose tissue, etc. adhering to the outer membrane of the aorta, to thereby prepare an incised aorta specimen. After formalin fixing, the incised aorta specimen was subjected to staining with oil red O. The thus stained incised aorta specimen was photographed with a digital camera. Subsequently, image analysis using Image Pro program (Planetron, Inc.) was performed to determine the area of atherosclerotic lesions stained red and the total area of the incised specimen (the area of vascular inner wall). The ratio of atherosclerotic lesions (%) was calculated by dividing the area of atherosclerotic lesions by the area of vascular inner wall. The reduction ratio of the atherosclerotic lesion area (%) in test compound-administered group was calculated taking the area of atherosclerotic lesions in vehicle-administered group as 100%, to thereby obtain an index for anti-atherosclerotic effects. All the measurement of the ratio of atherosclerotic lesions was performed in a blind fashion.

ob/ob mice = experiment: Anti-diabetic effects in ob/ob mice, a type 2 diabetic model; format: in vivo; settings: 10 mg/kg/day p.o. once a day for 6 weeks; male ob/ob mice; vehicle group 7.1%
Method: Anti-diabetic effects in ob/ob mice, a type 2 diabetic model were evaluated as describe next.
Male 9-week-old ob/ob mice (Charls river) habituated for a week were housed individually and freely fed a normal chow (CE-2, Japan Clea). The test compound was suspended in 0.5% methylcellulose solution. Vehicle (0.5% methylcellulose) or the compound was orally administered (5 mL/kg) once a day for 6 weeks. At the end of the treatment, bloods were collected from tail vein. The levels of glycosylated hemoglobin were measured as an index of diabetes severity using automated GHb analyzer (TOSOH Corporation).

T1 sequence (Q920R3 whole entry): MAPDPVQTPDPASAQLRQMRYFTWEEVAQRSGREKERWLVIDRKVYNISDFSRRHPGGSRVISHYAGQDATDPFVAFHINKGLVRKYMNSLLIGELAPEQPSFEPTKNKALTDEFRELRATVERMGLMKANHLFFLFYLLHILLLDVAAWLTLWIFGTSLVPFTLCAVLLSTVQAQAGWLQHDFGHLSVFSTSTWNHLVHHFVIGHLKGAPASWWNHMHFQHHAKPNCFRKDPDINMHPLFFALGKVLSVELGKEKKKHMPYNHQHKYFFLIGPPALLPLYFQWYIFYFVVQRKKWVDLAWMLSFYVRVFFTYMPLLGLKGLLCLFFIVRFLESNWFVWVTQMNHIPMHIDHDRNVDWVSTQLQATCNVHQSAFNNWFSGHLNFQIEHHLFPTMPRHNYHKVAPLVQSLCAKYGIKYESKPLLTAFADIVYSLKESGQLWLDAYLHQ

inhibition at 10 µM (delta-5-desaturase) [%]	Structure (SMILES)	Reduction in atherosclerotic lesion area (%) [1] [%]	Reduction in body weight (%) [1] [%]	Glycosylated hemoglobin (%) (ob/ob mice)
100	O=C1Cc2c(nc(OCC(F)(F)F)n(-c3ccc(OCC(F)(F)F)cc3)c2=O)N1 [Example 274, 2-(2,2,2-Trifluoroethoxy)-3-[4-(2,2,2-trifluoroethoxy)phenyl]-5,7-dihydro-3H-pyrrolo[2,3-d]pyrimidine-4,6-dione]	26	8	–
101	O=C1Cc2c(nc(SCC3CC3)n(-c3ccc(OCC(F)(F)F)cc3)c2=O)N1 [Example 297, 2-[(Cyclopropylmethyl)sulfanyl]-3-[4-(2,2,2-trifluoroethoxy)phenyl]-5,7-dihydro-3H-pyrrolo[2,3-d]pyrimidine-4,6-dione]	26	8	–
102	O=C1Cc2c(nc(OCC(F)(F)C(F)(F)F)n(-c3ccc(OCC(F)(F)F)cc3)c2=O)N1 [Example 326, 2-(2,2,3,3,3-Pentafluoropropoxy)-3-[4-(2,2,2-trifluoroethoxy)phenyl]-5,7-dihydro-3H-pyrrolo[2,3-d]pyrimidine-4,6-dione]	41	11	6.0
100	O=C1Cc2c(nc(SCC(F)(F)F)n(-c3ccc(OCC(F)(F)C(F)(F)F)cc3)c2=O)N1 [Example 347, 3-[4-(2,2,3,3,3-Pentafluoropropoxy)phenyl]-2-[(2,2,2-trifluoroethyl)sulfanyl]-5,7-dihydro-3H-pyrrolo[2,3-d]pyrimidine-4,6-dione]	–	–	–
